Test results: patent US11623919B2, “Heterocyclic P2X7 antagonists” (AXXAM S.P.A., priority 2017, dated 2023)

Key:
Experiment in all cases: Screen Quest Fluo-8 No Wash Calcium Assay (Bz-ATP evoked Ca2+ influx, FLIPR)
Format in all cases: cell-based
[1] = biological target: T1, P2X7 receptor (Rattus norvegicus, UniProt Q64663); settings: rP2X7; HEK-293 cells stably transfected with P2X7 receptor, Bz-ATP at EC80, Fluo-8 NW; potency ranges A-D
T1 construct: rP2X7 (IC50; nM); other: rP2X7; HEK-293 cells stably transfected with P2X7 receptor, Bz-ATP at EC80, Fluo-8 NW; potency
T1 sequence (Q64663 1-595): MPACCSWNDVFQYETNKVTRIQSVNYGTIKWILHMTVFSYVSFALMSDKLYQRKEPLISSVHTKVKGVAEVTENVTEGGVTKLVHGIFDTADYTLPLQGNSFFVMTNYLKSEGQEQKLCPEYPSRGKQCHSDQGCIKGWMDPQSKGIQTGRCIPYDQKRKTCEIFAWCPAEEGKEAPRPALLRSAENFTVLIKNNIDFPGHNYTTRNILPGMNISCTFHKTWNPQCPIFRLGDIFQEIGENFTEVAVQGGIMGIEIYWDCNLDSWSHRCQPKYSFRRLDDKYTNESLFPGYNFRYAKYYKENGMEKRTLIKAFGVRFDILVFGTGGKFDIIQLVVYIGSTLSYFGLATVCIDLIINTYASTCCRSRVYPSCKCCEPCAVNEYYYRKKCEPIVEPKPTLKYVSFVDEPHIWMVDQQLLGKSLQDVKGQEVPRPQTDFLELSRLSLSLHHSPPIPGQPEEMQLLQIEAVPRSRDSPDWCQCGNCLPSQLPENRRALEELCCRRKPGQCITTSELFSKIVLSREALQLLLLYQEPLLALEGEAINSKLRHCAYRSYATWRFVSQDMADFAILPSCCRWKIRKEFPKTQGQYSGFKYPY
Outline: (§1)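 HEK-293 cells stably expressing P2X7 were loaded with Fluo-8 NW for 1 h at RT, then given compound, and 5 min later Bz-ATP at EC80. Fluorescence was read by FLIPR in low divalent cation buffer (0.3 mM Ca2+, 0 mM Mg2+). IC50 came from percent inhibition relative to reference antagonist A438079.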

[2] = biological target: T2, P2X7 receptor (Mus musculus, UniProt Q9Z1M0); settings: mP2X7; HEK-293 cells stably transfected with P2X7 receptor, Bz-ATP at EC80, Fluo-8 NW; potency ranges A-D
T2 construct: mP2X7 (IC50; nM); other: mP2X7; HEK-293 cells stably transfected with P2X7 receptor, Bz-ATP at EC80, Fluo-8 NW; potency
T2 sequence (Q9Z1M0 1-595): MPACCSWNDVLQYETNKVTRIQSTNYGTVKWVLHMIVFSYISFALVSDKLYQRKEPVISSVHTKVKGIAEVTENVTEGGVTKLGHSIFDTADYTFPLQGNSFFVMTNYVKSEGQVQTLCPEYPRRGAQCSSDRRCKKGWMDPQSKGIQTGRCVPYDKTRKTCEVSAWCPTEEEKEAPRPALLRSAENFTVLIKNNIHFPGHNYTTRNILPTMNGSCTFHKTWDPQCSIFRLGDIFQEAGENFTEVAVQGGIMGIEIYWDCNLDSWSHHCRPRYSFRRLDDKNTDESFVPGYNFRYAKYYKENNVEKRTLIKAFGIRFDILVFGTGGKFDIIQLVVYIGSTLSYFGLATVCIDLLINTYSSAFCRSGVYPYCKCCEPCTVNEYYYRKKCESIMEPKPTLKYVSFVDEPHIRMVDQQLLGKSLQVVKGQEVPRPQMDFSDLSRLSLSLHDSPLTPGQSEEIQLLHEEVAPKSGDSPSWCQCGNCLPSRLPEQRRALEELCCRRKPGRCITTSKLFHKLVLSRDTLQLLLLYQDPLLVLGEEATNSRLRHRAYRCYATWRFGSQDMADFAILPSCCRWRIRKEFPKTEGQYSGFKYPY
Outline: as §1

[3] = biological target: T3, P2X7 receptor (Homo sapiens, UniProt Q99572); parameters: hP2X7 (IC50; nM); other: hP2X7; HEK-293 cells stably transfected with P2X7 receptor, Bz-ATP at EC80, Fluo-8 NW; potency; settings: hP2X7; HEK-293 cells stably transfected with P2X7 receptor, Bz-ATP at EC80, Fluo-8 NW; potency ranges A-D
T3 sequence (Q99572 1-595): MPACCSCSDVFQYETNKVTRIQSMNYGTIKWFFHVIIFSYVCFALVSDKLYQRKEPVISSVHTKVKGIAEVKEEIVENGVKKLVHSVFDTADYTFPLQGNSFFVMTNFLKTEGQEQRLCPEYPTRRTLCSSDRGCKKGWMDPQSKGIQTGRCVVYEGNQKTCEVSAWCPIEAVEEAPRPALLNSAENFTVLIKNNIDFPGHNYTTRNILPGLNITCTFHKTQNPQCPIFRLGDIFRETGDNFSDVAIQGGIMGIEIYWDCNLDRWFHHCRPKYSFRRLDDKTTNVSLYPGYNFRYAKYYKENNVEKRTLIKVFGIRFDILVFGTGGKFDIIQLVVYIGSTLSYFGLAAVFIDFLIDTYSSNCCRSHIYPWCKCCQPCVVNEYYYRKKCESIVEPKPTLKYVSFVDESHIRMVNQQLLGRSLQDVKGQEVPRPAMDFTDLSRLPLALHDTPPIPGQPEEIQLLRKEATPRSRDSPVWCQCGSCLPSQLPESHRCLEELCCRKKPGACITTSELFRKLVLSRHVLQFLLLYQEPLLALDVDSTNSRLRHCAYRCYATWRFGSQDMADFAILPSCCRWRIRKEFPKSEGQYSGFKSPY
Outline: as §1

In the case of `O=c1onc(Cc2c(F)cccc2Cl)n1CC1CCC1` [Example 69, 3-[(2-chloro-6-fluorophenyl)methyl]-4-(cyclobutylmethyl)-4,5-dihydro-1,2,4-oxadiazol-5-one], the IC50 [1] is reported as 200 to 1000 nM, the IC50 [2] is reported as 1000 to 10000 nM and the IC50 [3] is reported as 1000 to 10000 nM.
In the case of `O=c1onc(Cc2c(F)cccc2Cl)n1CC1CCC2(CC1)OCCO2` [Example 70, 3-[(2-chloro-6-fluorophenyl)methyl]-4-{1,4-dioxaspiro[4.5]decan-8-ylmethyl}-4,5-dihydro-1,2,4-oxadiazol-5-one], the IC50 [1] is reported as 1000 to 10000 nM, the IC50 [2] is reported as 1000 to 10000 nM and the IC50 [3] is reported as 200 to 1000 nM.
For `O=c1onc(Cc2cccc(C(F)(F)F)c2Cl)n1Cc1ccc(F)cc1` [Example 72, 3-{[2-chloro-3-(trifluoromethyl)phenyl]methyl}-4-[(4-fluorophenyl)methyl]-4,5-dihydro-1,2,4-oxadiazol-5-one], the IC50 [1] was over 10000 nM, the IC50 [2] was over 10000 nM and the IC50 [3] was over 10000 nM.
For `O=c1onc(Cc2ccc(Cl)cc2Cl)n1Cc1ccc(F)cc1` [Example 74, 3-[(2,4-dichlorophenyl)methyl]-4-[(4-fluorophenyl)methyl]-4,5-dihydro-1,2,4-oxadiazol-5-one], the IC50 [1] was 1000 to 10000 nM, the IC50 [2] was 1000 to 10000 nM and the IC50 [3] was 1000 to 10000 nM.
`O=c1onc(Cc2ccccc2F)n1Cc1ccc(F)cc1` [Example 75, 3-[(2-fluorophenyl)methyl]-4-[(4-fluorophenyl)methyl]-4,5-dihydro-1,2,4-oxadiazol-5-one] gave an IC50 [1] of 1000 to 10000 nM, an IC50 [2] of 1000 to 10000 nM and an IC50 [3] of 1000 to 10000 nM.
With `CC(C)(c1c(F)cccc1Cl)c1noc(=O)n1Cc1ccc(F)cc1` [Example 77, 3-[2-(2-chloro-6-fluorophenyl)propan-2-yl]-4-[(4-fluorophenyl)methyl]-4,5-dihydro-1,2,4-oxadiazol-5-one] the IC50 [1] was over 10000 nM, the IC50 [2] was over 10000 nM and the IC50 [3] was over 10000 nM.
`CC(c1c(F)cccc1Cl)c1noc(=O)n1Cc1ccc(F)cc1` (stereo not drawn) [Example 78, 3-[1-(2-chloro-6-fluorophenyl)ethyl]-4-[(4-fluorophenyl)methyl]-4,5-dihydro-1,2,4-oxadiazol-5-one] was tested, and the IC50 [1] was over 10000 nM, the IC50 [2] was over 10000 nM and the IC50 [3] was over 10000 nM.
Work on `O=c1onc(Cc2ccncc2)n1Cc1ccc(F)cc1` [Example 79, 4-[(4-fluorophenyl)methyl]-3-(pyridin-4-ylmethyl)-4,5-dihydro-1,2,4-oxadiazol-5-one] yielded an IC50 [1] of over 10000 nM, an IC50 [2] of over 10000 nM and an IC50 [3] of over 10000 nM.
`O=c1onc(Cc2ccc(F)cc2F)n1Cc1ccc(F)cc1` [Example 80, 3-[(2,4-difluorophenyl)methyl]-4-[(4-fluorophenyl)methyl]-4,5-dihydro-1,2,4-oxadiazol-5-one] showed an IC50 [1] of 1000 to 10000 nM, an IC50 [2] of over 10000 nM and an IC50 [3] of 1000 to 10000 nM.
In the case of `O=c1onc(Cc2c(F)cccc2Cl)n1CC1CC1` [Example 83, 3-[(2-chloro-6-fluorophenyl)methyl]-4-(cyclopropylmethyl)-4,5-dihydro-1,2,4-oxadiazol-5-one], the IC50 [1] is reported as over 10000 nM, the IC50 [2] is reported as over 10000 nM and the IC50 [3] is reported as over 10000 nM.
Work on `O=c1onc(Cc2c(F)cccc2Cl)n1CC1CCCOC1` (stereo not drawn) [Example 89, 3-[(2-chloro-6-fluorophenyl)methyl]-4-(oxan-3-ylmethyl)-4,5-dihydro-1,2,4-oxadiazol-5-one] yielded an IC50 [1] of 1000 to 10000 nM, an IC50 [2] of over 10000 nM and an IC50 [3] of 1000 to 10000 nM.
Compound `CCC#CCn1c(Cc2c(F)cccc2Cl)noc1=O` [Example 90, 3-[(2-chloro-6-fluorophenyl)methyl]-4-(pent-2-yn-1-yl)-4,5-dihydro-1,2,4-oxadiazol-5-one] has an IC50 [1] of 1000 to 10000 nM, an IC50 [2] of over 10000 nM and an IC50 [3] of 1000 to 10000 nM.
For `O=c1onc(Cc2c(F)cccc2Cl)n1CC1CCOCC1` [Example 93, 3-[(2-chloro-6-fluorophenyl)methyl]-4-(oxan-4-ylmethyl)-4,5-dihydro-1,2,4-oxadiazol-5-one], the IC50 [1] was 200 to 1000 nM, the IC50 [2] was 1000 to 10000 nM and the IC50 [3] was 1000 to 10000 nM.
Compound `CC#CCn1c(Cc2c(F)cccc2Cl)noc1=O` [Example 95, 4-(but-2-yn-1-yl)-3-[(2-chloro-6-fluorophenyl)methyl]-4,5-dihydro-1,2,4-oxadiazol-5-one] has an IC50 [1] of over 10000 nM, an IC50 [2] of over 10000 nM and an IC50 [3] of over 10000 nM.
Work on `O=c1onc(Cc2c(F)cccc2Cl)n1CC1COCCO1` (stereo not drawn) [Example 98, 3-[(2-chloro-6-fluorophenyl)methyl]-4-(1,4-dioxan-2-ylmethyl)-4,5-dihydro-1,2,4-oxadiazol-5-one] yielded an IC50 [1] of 1000 to 10000 nM, an IC50 [2] of over 10000 nM and an IC50 [3] of over 10000 nM.
Work on `COCn1c(Cc2c(F)cccc2Cl)noc1=O` [Example 100, 3-[(2-chloro-6-fluorophenyl)methyl]-4-(methoxymethyl)-4,5-dihydro-1,2,4-oxadiazol-5-one] yielded an IC50 [1] of over 10000 nM, an IC50 [2] of over 10000 nM and an IC50 [3] of over 10000 nM.
Work on `CCOCn1c(Cc2c(F)cccc2Cl)noc1=O` [Example 101, 3-[(2-chloro-6-fluorophenyl)methyl]-4-(ethoxymethyl)-4,5-dihydro-1,2,4-oxadiazol-5-one] yielded an IC50 [1] of over 10000 nM, an IC50 [2] of over 10000 nM and an IC50 [3] of over 10000 nM.
`CCCOCn1c(Cc2c(F)cccc2Cl)noc1=O` [Example 102, 3-[(2-chloro-6-fluorophenyl)methyl]-4-(propoxymethyl)-4,5-dihydro-1,2,4-oxadiazol-5-one] gave an IC50 [1] of 1000 to 10000 nM, an IC50 [2] of over 10000 nM and an IC50 [3] of 1000 to 10000 nM.
`O=c1onc(Cc2ccccn2)n1Cc1ccc(F)cc1` [Example 104, 4-[(4-fluorophenyl)methyl]-3-(pyridin-2-ylmethyl)-4,5-dihydro-1,2,4-oxadiazol-5-one] showed an IC50 [1] of over 10000 nM, an IC50 [2] of over 10000 nM and an IC50 [3] of over 10000 nM.
For `O=c1onc(Cc2ccccc2C(F)(F)F)n1Cc1ccc(F)cc1` [Example 105, 4-[(4-fluorophenyl)methyl]-3-{[2-(trifluoromethyl)phenyl]methyl}-4,5-dihydro-1,2,4-oxadiazol-5-one], the IC50 [1] was 1000 to 10000 nM, the IC50 [2] was 1000 to 10000 nM and the IC50 [3] was 1000 to 10000 nM.
In the case of `O=c1onc(Cc2cccc(F)c2)n1Cc1ccc(F)cc1` [Example 107, 3-[(3-fluorophenyl)methyl]-4-[(4-fluorophenyl)methyl]-4,5-dihydro-1,2,4-oxadiazol-5-one], the IC50 [1] is reported as 1000 to 10000 nM, the IC50 [2] is reported as 1000 to 10000 nM and the IC50 [3] is reported as 1000 to 10000 nM.
`O=c1onc(Cc2ccccc2)n1Cc1ccc(F)cc1` [Example 108, 3-benzyl-4-[(4-fluorophenyl)methyl]-4,5-dihydro-1,2,4-oxadiazol-5-one] showed an IC50 [1] of 1000 to 10000 nM, an IC50 [2] of 1000 to 10000 nM and an IC50 [3] of 1000 to 10000 nM.
